Laboratory results published in US9656962B2, “Ring-contracted morphinans and the use thereof” (Purdue Pharma L.P., priority 2013, dated 2017).

Target: μ-opioid receptor (Homo sapiens (Human), UniProt P35372)
Assay: μ-opioid receptor [35S]GTPγS functional assay, HEK-293 cells (Table 6)
Type: biochemical
Conditions: for EC50: μ GTP
Experimental: μ-Opioid Receptor Functional Assay Procedures: [^35S]GTPγS functional assays were conducted using freshly thawed μ-receptor membranes prepared in-house from a cell line expressing recombinant μ opioid receptor in a HEK-293, CHO or U-2 OS cell background, or purchased from a commercial source (Perkin Elmer, Shelton, Conn.; or DiscovRx, Fremont, Calif.). Assay reactions were prepared by sequentially adding the following reagents to binding buffer (100 mM NaCl, 10 mM MgCl2, 20 mM HEPES, pH 7.4) on ice (final concentrations indicated): membrane protein (0.026 mg/mL), saponin ([…]), GDP ([…]) and [^35S]GTPγS (0.20 nM; Perkin Elmer, Shelton, Conn.). The prepared membrane solution (190 μl/well) was transferred to 96-shallow well polypropylene plates containing 10 μl of 20× concentrated stock solutions of the agonist [D-Ala^2, N-methyl-Phe^4 Gly-ol^5]-enkephalin (DAMGO) prepared in dimethyl sulfoxide (DMSO). Plates were incubated for 30 min at about 25° C. with shaking Reactions were terminated by rapid filtration onto 96-well Unifilter GF/B filter plates (Perkin Elmer, Shelton, Conn.) using a 96-well tissue harvester (Perkin Elmer, Shelton, Conn.) followed by three filtration washes with 200 μl of ice-cold wash buffer (10 mM NaH2PO4, 10 mM Na2HPO4, pH 7.4). Filter plates were subsequently dried at 50° C. for 2-3 hours. BetaScint scintillation cocktail (Perkin Elmer, Shelton, Conn.) was added (50 μl/well) and plates were counted using a Packard Top-Count for 1 min/well. Data were analyzed using the sigmoidal dose-response curve fitting functions in GraphPad PRISM v. 3.0, or an in-house function for non-linear, sigmoidal dose-response curve-fitting. [^35S]GTPγS functional assays can also be conducted using freshly thawed μ-receptor membranes prepared from a cell line expressing recombinant μ opioid receptor in a CHO-K1 cell background.
μ GTP Emax (%) is the maximal effect elicited by a compound relative to the effect elicited by DAMGO, a standard μ agonist. Generally, the μ GTP Emax (%) value measures the efficacy of a compound to treat or prevent pain or other Conditions.
The following TABLE 6 provides results on the activity response of certain Compounds of the Invention at the μ- and κ-opioid receptors determined as described above using HEK-293 cells.

Molecule	Emax (relative to DAMGO) [%]	EC50 [µM]	EC50 (bound given in μM) [µM]	μ Emax (%) (relative to DAMGO)
Cc1ccc(CNC(=O)[C@H]2C[C@]34CCN(C)[C@H](Cc5ccc(O)cc53)[C@]4(O)C2)cc1 [Compound 97, (2S,3aS,4R,9bS)-3a,8-dihydroxy-12-methyl-N-(4-methylbenzyl)-1,2,3,3a,4,5-hexahydro-4,9b-(epiminoethano)cyclo-penta[a]naphthalene-2-carboxamide]	90.3 ± 0.88	0.0281 ± 0.00154		
O=C(NCCN1CCCCC1)[C@H]1C[C@]23CCN(CC4CC4)[C@H](Cc4ccc(O)cc42)[C@]3(O)C1 [Compound 133, (2S,3aS,4R,9bS)-12-(cyclopropylmethyl)-3a,8-dihydroxy-N-(2-(piperidin-1-yl)ethyl)-1,2,3,3a,4,5-hexahydro-4,9b-(epiminoethano)cyclopenta[a]naphthalene-2-carboxamide]	29.8 ± 1.22	0.0142 ± 0.00373		
O=S(=O)(N[C@@H]1C[C@]23CCN(CC4CC4)[C@H](Cc4ccc(O)cc42)[C@]3(O)C1)c1ccccc1 [Compound 95, N-((2R,3aS,4R,9bR)-12-(cyclopropyl-methyl)-3a,8-dihydroxy-1,2,3,3a,4,5-hexahydro-4,9b-(epiminoethano)-cyclopenta[a]naphthalen-2-yl)benzene-sulfonamide]	1		> 20	
O=C(NCc1ccc(F)cc1F)[C@H]1C[C@]23CCN(CC4CC4)[C@H](Cc4ccc(O)cc42)[C@]3(O)C1 [Compound 146, (2S,3aS,4R,9bS)-12-(cyclopropylmethyl)-N-(2,4-difluorobenzyl)-3a,8-dihydroxy-1,2,3,3a,4,5-hexahydro-4,9b-(epimino-ethano)cyclopenta[a]naphthalene-2-carboxamide]	28.3 ± 1.13	0.00222 ± 0.00041		
Cc1ccc(CNC(=O)[C@@H]2C[C@]34CCN(CC5CC5)[C@H](Cc5ccc(C(N)=O)cc53)[C@]4(O)C2)cc1 [Compound 117, (2R,3aS,4R,9bS)-12-(cyclopropylmethyl)-3a-hydroxy-N^2-(4-methylbenzyl)-1,2,3,3a,4,5-hexahydro-4,9b-(epimino-ethano)cyclopenta[a]naphthalene-2,8-dicarboxamide]	-1.21 ± 0.21		> 20	
C[C@@H]1CN(CCNC(=O)[C@@H]2C[C@]34CCN(CC5CC5)[C@H](Cc5ccc(O)cc53)[C@]4(O)C2)C[C@H](C)O1 [Compound 134, (2R,3aS,4R,9bS)-12-(cyclopropylmethyl)-N-(2-((2S,6R)-2,6-dimethylmorpholino)-ethyl)-3a,8-dihydroxy-1,2,3,3a,4,5-hexahydro-4,9b-(epiminoethano)-cyclopenta[a]naphthalene-2-carboxamide]	9.53 ± 0.9	0.092 ± 0.0197		
CN1CC[C@]23C[C@H](C(=O)NCc4ccc(Cl)c(Cl)c4)C[C@@]2(O)[C@H]1Cc1ccc(O)cc13 [Compound 101, (2S,3aS,4R,9bS)-N-(3,4-dichlorobenzyl)-3a,8-dihydroxy-12-methyl-1,2,3,3a,4,5-hexahydro-4,9b-(epiminoethano)cyclo-penta[a]naphthalene-2-carboxamide]	96.7 ± 2.19	0.00158 ± 0.00022		
C[C@@H]1CN(CCNC(=O)[C@H]2C[C@]34CCN(CC5CC5)[C@H](Cc5ccc(O)cc53)[C@]4(O)C2)C[C@H](C)O1 [Compound 135, (2S,3aS,4R,9bS)-12-(cyclopropylmethyl)-N-(2-((2S,6R)-2,6-dimethylmorpholino)-ethyl)-3a,8-dihydroxy-1,2,3,3a,4,5-hexahydro-4,9b-(epiminoethano)cyclo-penta[a]naphthalene-2-carboxamide]	19.7 ± 0.89	0.0103 ± 0.00103		
CN1CC[C@]23C[C@@H](C(=O)N4CCOCC4)C[C@@]2(O)[C@H]1Cc1ccc(O)cc13 [Compound 111, ((2R,3aS,4R,9bS)-3a,8-dihydroxy-12-methyl-1,2,3,3a,4,5-hexahydro-4,9b-(epiminoethano)cyclopenta[a]naphthalen-2-yl)(morpholino)methanone]	35.1 ± 1.06	3.17 ± 0.493		
CN1CC[C@]23C[C@H](C(=O)NCc4ccc(Cl)cc4Cl)C[C@@]2(O)[C@H]1Cc1ccc(O)cc13 [Compound 107, (2S,3aS,4R,9bS)-N-(2,4-dichlorobenzyl)-3a,8-dihydroxy-12-methyl-1,2,3,3a,4,5-hexahydro-4,9b-(epiminoethano)cyclo-penta[a]naphthalene-2-carboxamide]	94.7 ± 0.33	0.0108 ± 0.00083		
CN1CC[C@]23C[C@@H](C(=O)NCCO)C[C@@]2(O)[C@H]1Cc1ccc(O)cc13 [Compound 114, (2R,3aS,4R,9bS)-3a,8-dihydroxy-N-(2-hydroxyethyl)-12-methyl-1,2,3,3a,4,5-hexahydro-4,9b-(epiminoethano)cyclo-penta[a]naphthalene-2-carboxamide]	23 ± 1.54	8.44 ± 1.54		
NC(=O)c1ccc2c(c1)[C@]13CCN(CC4CC4)[C@H](C2)[C@]1(O)C[C@H](C(=O)NCCN1CCOCC1)C3 [Compound 118, (2R,3aS,4R,9bS)-12-(cyclopropylmethyl)-3a-hydroxy-N^2-(2-morpholinoethyl)-1,2,3,3a,4,5-hexahydro-4,9b-(epimino-ethano)cyclopenta[a]naphthalene-2,8-dicarboxamide]	13.2 ± 1.17	0.175 ± 0.0099		
O=C(NCc1ccc(O)c(Cl)c1)[C@@H]1C[C@]23CCN(CC4CC4)[C@H](Cc4ccc(O)cc42)[C@]3(O)C1 [Compound 128, (2R,3aS,4R,9bS)-N-(3-chloro-4-hydroxybenzyl)-12-(cyclopropylmethyl)-3a,8-dihydroxy-1,2,3,3a,4,5-hexahydro-4,9b-(epiminoethano)cyclopenta-[a]naphthalene-2-carboxamide]	-1		> 20	
O=C(NCc1ccc(F)c(F)c1)[C@@H]1C[C@]23CCN(CC4CC4)[C@H](Cc4ccc(O)cc42)[C@]3(O)C1 [Compound 145, (2R,3aS,4R,9bS)-12-(cyclopropylmethyl)-N-(3,4-difluorobenzyl)-3a,8-dihydroxy-1,2,3,3a,4,5-hexahydro-4,9b-(epimino-ethano)cyclopenta[a]naphthalene-2-carboxamide]	-1		> 20	
O=C(NCCc1ccc(Cl)c(Cl)c1)[C@@H]1C[C@]23CCN(CC4CC4)[C@H](Cc4ccc(O)cc42)[C@]3(O)C1 [Compound 131, (2R,3aS,4R,9bS)-12-(cyclopropylmethyl)-N-(3,4-dichlorophenethyl)-3a,8-dihydroxy-1,2,3,3a,4,5-hexahydro-4,9b-(epiminoethano)cyclopenta[a]naphthalene-2-carboxamide]	1		> 20	
O=C(NCc1ccc(Cl)cc1F)[C@@H]1C[C@]23CCN(CC4CC4)[C@H](Cc4ccc(O)cc42)[C@]3(O)C1 [Compound 136, (2R,3aS,4R,9bS)-N-(4-chloro-2-fluorobenzyl)-12-(cyclopropylmethyl)-3a,8-dihydroxy-1,2,3,3a,4,5-hexahydro-4,9b-(epiminoethano)cyclopenta-[a]naphthalene-2-carboxamide]	-0.33 ± 0.67		> 20	
CN1CC[C@]23C[C@@H](C(=O)NCCN4CCOCC4)C[C@@]2(O)[C@H]1Cc1ccc(O)cc13 [Compound 112, (2R,3aS,4R,9bS)-3a,8-dihydroxy-12-methyl-N-(2-morpholinoethyl)-1,2,3,3a,4,5-hexahydro-4,9b-(epimino-ethano)cyclopenta[a]naphthalene-2-carboxamide]	38.8 ± 1.54	10.2 ± 0.241		
O=C(NCc1ccc(O)cc1Cl)[C@@H]1C[C@]23CCN(CC4CC4)[C@H](Cc4ccc(O)cc42)[C@]3(O)C1 [Compound 127, (2R,3aS,4R,9bS)-N-(2-chloro-4-hydroxybenzyl)-12-(cyclopropylmethyl)-3a,8-dihydroxy-1,2,3,3a,4,5-hexahydro-4,9b-(epiminoethano)cyclopenta-[a]naphthalene-2-carboxamide]	-1		> 20	
CC(C)CNC(=O)[C@H]1C[C@]23CCN(C)[C@H](Cc4ccc(O)cc42)[C@]3(O)C1 [Compound 102, (2S,3aS,4R,9bS)-3a,8-dihydroxy-N-isobutyl-12-methyl-1,2,3,3a,4,5-hexahydro-4,9b-(epiminoethano)cyclo-penta[a]naphthalene-2-carboxamide]	49.5 ± 4.94	0.655 ± 0.128		
(2R,3aS,4R,9bS)-N-(2-chlorobenzyl)-12- (cyclopropylmethyl)-3a,8-dihydroxy- 1,2,3,3a,4,5-hexahydro-4,9b-(epimino- ethano)cyclopenta[a]naphthalene-2- carboxamide [Compound 148]			> 20	1.00
Cc1c(Cl)cccc1CNC(=O)[C@H]1C[C@]23CCN(CC4CC4)[C@H](Cc4ccc(O)cc42)[C@]3(O)C1 [Compound 138, (2S,3aS,4R,9bS)-N-(3-chloro-2-methylbenzyl)-12-(cyclopropylmethyl)-3a,8-dihydroxy-1,2,3,3a,4,5-hexahydro-4,9b-(epiminoethano)cyclopenta-[a]naphthalene-2-carboxamide]	52.4 ± 1.72	0.00071 ± 6.8e-05		
